The compounds below were run against T1, c-Met kinase (recombinant c-Met) (Homo sapiens, UniProt P08581) (assay: In vitro kinase assay I (homogeneous time-resolved fluorescence tyrosine kinase assay)).
T1 construct: 0.27 nM recombinant c-Met
Type: biochemical
Summary of the method: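 Biotinylated peptide (0.5 μM) phosphorylated by 0.2 nM recombinant c-Met with 50 μM MgATP, 60 min at room temperature, pH 7.4, 5% DMSO. EDTA stop; HTRF read with Eu-anti-phosphotyrosine antibody and streptavidin-APC. IC50 from 4-parameter logistic fit.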

T1 sequence (P08581 25-1390): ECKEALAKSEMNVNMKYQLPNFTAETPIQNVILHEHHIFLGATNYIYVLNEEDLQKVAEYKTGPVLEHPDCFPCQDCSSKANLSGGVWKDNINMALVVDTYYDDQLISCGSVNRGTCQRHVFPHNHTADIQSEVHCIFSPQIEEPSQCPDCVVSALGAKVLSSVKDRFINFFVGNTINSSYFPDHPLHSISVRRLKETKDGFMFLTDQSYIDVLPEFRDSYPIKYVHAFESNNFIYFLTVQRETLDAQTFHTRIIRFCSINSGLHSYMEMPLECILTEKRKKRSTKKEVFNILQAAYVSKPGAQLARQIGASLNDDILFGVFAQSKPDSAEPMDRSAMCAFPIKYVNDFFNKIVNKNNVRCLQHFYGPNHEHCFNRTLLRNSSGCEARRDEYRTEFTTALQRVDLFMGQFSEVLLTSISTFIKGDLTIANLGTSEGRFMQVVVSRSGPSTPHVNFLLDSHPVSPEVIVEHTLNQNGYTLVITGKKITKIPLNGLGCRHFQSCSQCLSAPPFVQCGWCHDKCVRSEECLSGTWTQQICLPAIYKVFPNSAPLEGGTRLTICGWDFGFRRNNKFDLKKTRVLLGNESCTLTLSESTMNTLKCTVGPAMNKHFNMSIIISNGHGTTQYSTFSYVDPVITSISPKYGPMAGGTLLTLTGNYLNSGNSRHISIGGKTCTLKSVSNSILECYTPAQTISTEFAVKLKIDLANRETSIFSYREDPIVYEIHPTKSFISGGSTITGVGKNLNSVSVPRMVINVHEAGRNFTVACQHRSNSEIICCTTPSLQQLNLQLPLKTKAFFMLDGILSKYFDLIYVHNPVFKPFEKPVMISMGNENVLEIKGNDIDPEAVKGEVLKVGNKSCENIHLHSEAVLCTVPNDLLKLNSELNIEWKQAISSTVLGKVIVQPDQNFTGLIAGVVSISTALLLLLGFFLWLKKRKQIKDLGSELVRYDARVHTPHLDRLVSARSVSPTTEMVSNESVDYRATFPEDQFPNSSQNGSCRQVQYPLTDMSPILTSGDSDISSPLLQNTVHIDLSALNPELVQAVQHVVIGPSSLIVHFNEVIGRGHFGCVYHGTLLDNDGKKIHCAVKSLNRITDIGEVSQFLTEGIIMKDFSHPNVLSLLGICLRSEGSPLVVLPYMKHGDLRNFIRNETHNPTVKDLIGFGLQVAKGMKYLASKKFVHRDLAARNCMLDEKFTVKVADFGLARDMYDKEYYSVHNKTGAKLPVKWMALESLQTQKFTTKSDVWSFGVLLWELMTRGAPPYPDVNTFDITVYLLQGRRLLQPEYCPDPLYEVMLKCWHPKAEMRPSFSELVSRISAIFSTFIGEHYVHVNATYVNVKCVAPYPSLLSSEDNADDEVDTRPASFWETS

IC50, < 100 nM:
Cn1cc(-n2ccc(=O)c(Cc3cccc(-c4ncc(-c5cnn(C6COC6)c5)cn4)c3)n2)cn1 [Example 435, 1-(1-Methyl-1H-pyrazol-4-yl)-3-{3-[5-(1-oxetan-3-yl-1H-pyrazol-4-yl)pyrimidin-2-yl]benzyl}pyridazin-4(1H)-one]
CC(C)c1cnc(-c2cccc(Cc3nn(-c4cnn(C)c4)ccc3=O)c2)nc1 [Example 436, 1-(1-Methyl-1H-pyrazol-4-yl)-3-{3-[5-(propan-2-yl)pyrimidin-2-yl]benzyl}pyridazin-4(1H)-one]
Cn1cc(-n2ccc(=O)c(Cc3cccc(-c4ncc(CCC(C)(C)O)cn4)c3)n2)cn1 [Example 437, 3-{3-[5-(3-hydroxy-3-methylbutyl)pyrimidin-2-yl]benzyl}-1-(1-methyl-1H-pyrazol-4-yl)pyridazin-4(1H)-one]
CN(C)CCCc1cnc(-c2cccc(Cc3nn(-c4cnn(C)c4)ccc3=O)c2)nc1 [Example 438, 3-(3-{5-[3-(dimethylamino)propyl]pyrimidin-2-yl}benzyl)-1-(1-methyl-1H-pyrazol-4-yl)pyridazin-4(1H)-one]
COCCCc1cnc(-c2cccc(Cc3nn(-c4cnn(C)c4)ccc3=O)c2)nc1 [Example 439, 3-{3-[5-(3-methoxypropyl)pyrimidin-2-yl]benzyl}-1-(1-methyl-1H-pyrazol-4-yl)pyridazin-4(1H)-one]
Cn1cc(-n2ccc(=O)c(Cc3cccc(-c4ncc(N5CCCCC5)cn4)c3)n2)cn1 [Example 441, 1-(1-methyl-1H-pyrazol-4-yl)-3-[3-(5-piperidin-1-ylpyrimidin-2-yl)benzyl]pyridazin-4(1H)-one]
Cn1cc(-n2ccc(=O)c(Cc3cccc(-c4ncc(N5CCC(O)CC5)cn4)c3)n2)cn1 [Example 442, 3-{3-[5-(4-hydroxypiperidin-1-yl)pyrimidin-2-yl]benzyl}-1-(1-methyl-1H-pyrazol-4-yl)pyridazin-4(1H)-one]
CN(C)C1CCN(c2cnc(-c3cccc(Cc4nn(-c5cnn(C)c5)ccc4=O)c3)nc2)CC1 [Example 444, 3-(3-{5-[4-(dimethylamino)piperidin-1-yl]pyrimidin-2-yl}benzyl)-1-(1-methyl-1H-pyrazol-4-yl)pyridazin-4(1H)-one]
Cn1cc(-n2ccc(=O)c(Cc3cccc(-c4ncc(N5CCC(C(N)=O)CC5)cn4)c3)n2)cn1 [Example 445, 1-[2-(3-{[1-(1-methyl-1H-pyrazol-4-yl)-4-oxo-1,4-dihydropyridazin-3-yl]methyl}phenyl)pyrimidin-5-yl]piperidine-4-carboxamide]
Cn1cc(-n2ccc(=O)c(Cc3cccc(-c4ncc(N5CCC(F)(F)C5)cn4)c3)n2)cn1 [Example 447, 3-{3-[5-(3,3-difluoropyrrolidin-1-yl)pyrimidin-2-yl]benzyl}-1-(1-methyl-1H-pyrazol-4-yl)pyridazin-4(1H)-one]
Cn1cc(-n2ccc(=O)c(Cc3cccc(-c4ncc(N5CCS(=O)(=O)CC5)cn4)c3)n2)cn1 [Example 448, 3-{3-[5-(1,1-dioxidothio-morpholin-4-yl]pyrimidin-2-yl]benzyl}-1-(1-methyl-1H-pyrazol-4-yl)pyridazin-4(1H)-one]
CCCNc1cnc(-c2cccc(Cc3nn(-c4cnn(C)c4)ccc3=O)c2)nc1 [Example 451, 1-(1-Methyl-1H-pyrazol-4-yl)-3-{3-[5-(propylamino)pyrimidin-2-yl]benzyl}pyridazin-4(1H)-one]
CCNc1cnc(-c2cccc(Cc3nn(-c4cnn(C)c4)ccc3=O)c2)nc1 [Example 452]
COCCNc1cnc(-c2cccc(Cc3nn(-c4cnn(C)c4)ccc3=O)c2)nc1 [Example 453, 3-(3-{5-[(2-methoxyethyl)amino]pyrimidin-2-yl}benzyl)-1-(1-methyl-1H-pyrazol-4-yl)pyridazin-4(1H)-one]
CCOCCNc1cnc(-c2cccc(Cc3nn(-c4cnn(C)c4)ccc3=O)c2)nc1 [Example 454, 3-(3-{5-[(2-ethoxyethyl)amino]pyrimidin-2-yl}benzyl)-1-(1-methyl-1H-pyrazol-4-yl)pyridazin-4(1H)-one]
CCCN(C)c1cnc(-c2cccc(Cc3nn(-c4cnn(C)c4)ccc3=O)c2)nc1 [Example 456, 3-(3-{5-[Methyl(propyl)amino]pyrimidin-2-yl}benzyl)-1-(1-methyl-1H-pyrazol-4-yl)pyridazin-4(1H)-one]
COCCC(=O)Nc1cnc(-c2cccc(Cc3nn(-c4cnn(C)c4)ccc3=O)c2)nc1 [Example 458, 3-Methoxy-N-[2-(3-{[1-(1-methyl-1H-pyrazol-4-yl)-4-oxo-1,4-dihydropyridazin-3-yl]methyl}phenyl)pyrimidin-5-yl]propanamide]
Cn1cc(-n2ccc(=O)c(Cc3cccc(-c4ncc(NC(=O)CC5CCOCC5)cn4)c3)n2)cn1 [Example 459, N-[2-(3-{[1-(1-methyl-1H-pyrazol-4-yl)-4-oxo-1,4-dihydro-pyridazin-3-yl]methyl}phenyl)pyrimidin-5-yl]-2-(tetrahydro 2H-pyran-4-yl)acetamide]
CCC(=O)Nc1cnc(-c2cccc(Cc3nn(-c4cnn(C)c4)ccc3=O)c2)nc1 [Example 460, N-[2-(3-{[1-(1-methyl-1H-pyrazol-4-yl)-4-oxo-1,4-dihydro-pyridazin-3-yl]methyl}phenyl)pyrimidin-5-yl}propanamide]
COCC(=O)Nc1cnc(-c2cccc(Cc3nn(-c4cnn(C)c4)ccc3=O)c2)nc1 [Example 461, 2-methoxy-N-[2-(3-{[1-(1-methyl-1H-pyrazol-4-yl)-4-oxo-1,4-dihydro-pyridazin-3-yl]methyl}phenyl)pyrimidin-5-yl]acetamide]
Cn1cc(-n2ccc(=O)c(Cc3cccc(-c4ncc(NC(=O)CN5CCCC5=O)cn4)c3)n2)cn1 [Example 463, N-[2-(3-{[1-(1-methyl-1H-pyrazol-4-yl)-4-oxo-1,4-dihydro-pyridazin-3-yl]methyl}phenyl)pyrimidin-5-yl]-2-(2-oxopyrrolidin-1-yl)acetamide]
Cn1cc(-n2ccc(=O)c(Cc3cccc(-c4ncc(Br)cn4)c3)n2)cn1 [Example 465, 3-[3-(5-Bromopyrimidin-2-yl)benzyl]-1-(1-methyl-1H-pyrazol-4-yl)pyridazin-4(1H)-one]
CN1CCN(c2cnc(-c3cccc(Cc4nn(-c5cnn(C)c5)ccc4=O)c3)nc2)CC1 [Example 467, 3-{3-[5-(4-methyl-piperazin-1-yl)pyrimidin-2-yl]benzyl}-1-(1-methyl-1H-pyrazol-4-yl)pyridazin-4(1H)-one]
Cn1cc(-n2ccc(=O)c(Cc3cccc(-c4ncc(N5CCCC5)cn4)c3)n2)cn1 [Example 470, 1-(1-methyl-1H-pyrazol-4-yl)-3-[3-(5-pyrrolidin-1-ylpyrimidin-2-yl)benzyl]pyridazin-4(1H)-one]
Cn1cc(-n2ccc(=O)c(Cc3cccc(-c4ncc(N5CCN(C(=O)OC(C)(C)C)CC5)cn4)c3)n2)cn1 [Example 471, tert-butyl 4-[2-(3-{[1-(1-methyl-1H-pyrazol-4-yl)-4-oxo-1,4-dihydro-pyridazin-3-yl]methyl}phenyl)pyrimidin-5-yl]piperazine-1-carboxylate]
Cn1cc(-n2ccc(=O)c(Cc3cccc(-c4ncc(N5CCOCC5)cn4)c3)n2)cn1 [Example 472, 1-(1-methyl-1H-pyrazol-4-yl)-3-[3-(5-morpholin-4-ylpyrimidin-2-yl)benzyl]pyridazin-4(1H)-one]
Cn1cc(-n2ccc(=O)c(Cc3cccc(-c4ncc(-n5cnnc5)cn4)c3)n2)cn1 [Example 473, 1-(1-Methyl-1H-pyrazol-4-yl)-3-{3-[5-(4H-1,2,4-triazol-4-yl)pyrimidin-2-yl]benzyl}pyridazin-4(1H)-one]
Cn1cc(-n2ccc(=O)c(Cc3cccc(-c4ncc(C(=O)NCCN5CCOCC5)cn4)c3)n2)cn1 [Example 477, 2-(3-{[1-(1-methyl-1H-pyrazol-4-yl)-4-oxo-1,4-dihydro-pyridazin-3-yl]methyl}phenyl)-N-(2-morpholin-4-ylethyl)pyrimidine-5-carboxamide]
CN1CCN(CCCNC(=O)c2cnc(-c3cccc(Cc4nn(-c5cnn(C)c5)ccc4=O)c3)nc2)CC1 [Example 479, N-[3-(4-methyl-piperazin-1-yl)propyl]-2-(3-{[1-(1-methyl-1H-pyrazol-4-yl)-4-oxo-1,4-dihydro-pyridazin-3-yl]methyl}phenyl)pyrimidine-5-carboxamide]
CC(C)CNC(=O)c1cnc(-c2cccc(Cc3nn(-c4cnn(C)c4)ccc3=O)c2)nc1 [Example 480, N-(2-methylpropyl)-2-(3-{[1-(1-methyl-1H-pyrazol-4-yl)-4-oxo-1,4-dihydro-pyridazin-3-yl]methyl}phenyl)pyrimidine-5-carboxamide]
Cn1cc(-n2ccc(=O)c(Cc3cccc(-c4ncc(C(=O)NCC(F)(F)F)cn4)c3)n2)cn1 [Example 481, 2-(3-{[1-(1-methyl-1H-pyrazol-4-yl)-4-oxo-1,4-dihydro-pyridazin-3-yl]methyl}phenyl)-N-(2,2,2-trifluoroethyl)pyrimidine-5-carboxamide]
Cn1cc(-n2ccc(=O)c(Cc3cccc(-c4ncc(C(=O)NCCCN5CCOCC5)cn4)c3)n2)cn1 [Example 482, 2-(3-{[1-(1-methyl-1H-pyrazol-4-yl)-4-oxo-1,4-dihydro-pyridazin-3-yl]methyl}phenyl)-N-(3-morpholin-4-ylpropyl)pyrimidine-5-carboxamide]
CCNC(=O)c1cnc(-c2cccc(Cc3nn(-c4cnn(C)c4)ccc3=O)c2)nc1 [Example 484, N-ethyl-2-(3-{[1-(1-methyl-1H-pyrazol-4-yl)-4-oxo-1,4-dihydro-pyridazin-3-yl]methyl}phenyl)pyrimidine-5-carboxamide]
CNC(=O)c1cnc(-c2cccc(Cc3nn(-c4cnn(C)c4)ccc3=O)c2)nc1 [Example 485, N-methyl-2-(3-{[1-(1-methyl-1H-pyrazol-4-yl)-4-oxo-1,4-dihydro-pyridazin-3-yl]methyl}phenyl)pyrimidine-5-carboxamide]

Source: patent US20120264735A1 (priority 2009, published 2012)
